In brackets after ≈: the same amount, converted by molar mass.
Legend:
Assay type in all cases: functional
Conditions in all cases: for LC50: Diaphorina citri, 48 h
Diaphorina citri [1] = experiment: Insecticidal activity against orange/yellow Diaphorina citri in citrus leaf assessed as mortality after 48 hr by leaf-dip petridish bioassay method
Diaphorina citri [2] = experiment: Insecticidal activity against gray/brown Diaphorina citri in citrus leaf assessed as mortality after 48 hr by leaf-dip petridish bioassay method
Diaphorina citri [3] = experiment: Insecticidal activity against blue/green Diaphorina citri in citrus leaf assessed as mortality after 48 hr by leaf-dip petridish bioassay method

Row | Structure (SMILES) | LC95 (Diaphorina citri [1]) [µg/mL] | LC50 (Diaphorina citri [1]) [µg/mL] | LC95 (Diaphorina citri [2]) [µg/mL] | LC50 (Diaphorina citri [2]) [µg/mL] | LC95 (Diaphorina citri [3]) [µg/mL] | LC50 (Diaphorina citri [3]) [µg/mL]
1 | CCOP(=S)(OCC)Oc1nc(Cl)c(Cl)cc1Cl [CHLORPYRIFOS] | 2.67 (≈ 7.62 µM) | 0.92 (≈ 2.62 µM) | 11.62 (≈ 33.1 µM) | 3.62 (≈ 10.3 µM) | 12.12 (≈ 34.6 µM) | 3.93 (≈ 11.2 µM)
2 | CC1(C)C(C(=O)OC(C#N)c2cccc(Oc3ccccc3)c2)C1(C)C (centres undefined) [FENPROPATHRIN] |  |  |  |  | 29.21 (≈ 83.6 µM) | 0.85 (≈ 2.43 µM)
3 | O=[N+]([O-])/N=C1\NCCN1Cc1ccc(Cl)nc1 [IMIDACLOPRID] | 1.09 (≈ 4.26 µM) | 0.18 (≈ 0.704 µM) | 1.59 (≈ 6.22 µM) | 0.41 (≈ 1.6 µM) | 1.84 (≈ 7.2 µM) | 0.4 (≈ 1.56 µM)
